Measurements from US20010053796A1, “Delta-aminolevulinic acid for prevention and treatment of infection microorganisms and parasite” (priority 2000, published 2001).
In brackets after ≈: the same amount, converted by molar mass.

How the values were obtained:
[1] = tested on: FHM (Fathead Minnow Epithelioma); details: 24 h
Experimental: δ-aminolevulinic acid feed were prepared to 1.0 M concentration (0. 167 g/mL HBSS) and diluted by 10-fold dilution method. 100 μl of each fish cell line suspension of 2.5×10^5 were placed into 96-well microplate and then, 100 μl of each of the resulting diluted solution, 4 well/dilution unit, were added respectively. Fish cell lines, which were used for this cell toxicity experiment of δ-aminolevulinic acid, were RTG-2 (Rainbow Trout Gonad), FHM (Fathead Minnow Epithelioma) and CHSE (Chinook Salmon Embryo) lotted out from Dr. M. Yoshimizu of the Department of Fisheries, Hokkaido University, Japan. For these experimental cells, 100 U/mL penicillin (Sigma), 100 μl/mL streptomycin (Sigma) and MEM media supplemented with 5% fetal bovine serum (FBS, Gibco) for cell culture were used. Cultured cells in 96-well microplate was incubated for 3 hrs at 15° C. and δ-aminolevulinic acid were added to wells at amounts of 100 μl of 0, 1.0, 10, 50 and 100 mM and incubated for 24 hrs at 18° C. As a control group, instead of δ-aminolevulinic acid, HBSS was added at the same amount. […] Absorbance was measured with an ELISA reader at 570 μl.

Pseudomonas sp. = test: Treatment effect of infected fry by digestion in breeding water; assay type: in vivo, Sebastes schlegeli; details: 50 fish
Experimental: (§1) To be used as experimental fish in this example, fry of Bastardhalibut and Sebastes schlegeli (mean body weight 2 g), 50 per each breeding tank, were preliminary-bred for 1 week and stabilized. […] The artificial infection methods were carried out by the digestion method. Pathogenic organisms were applied into fish tanks and digested in seawater, wherein the concentration of organisms has adjusted to 10^4 CFU/mL for an hour, and infected. Treatment conditions are as follows. After artificial infection. Infected fishes were moved to fish tanks and kept in the infection period for 3 days. On the fourth day of infection, 0.1, 1.0, 5 and 10 ppm δ-aminolevulinic acid were introduced to use as breeding water. Fish was bred in aerobic condition for 1˜24 hours without exchanging water and then, bred for 2 weeks after exchanging with clean seawater. Then, they were monitored to check for the mortality of fish according to infection. In the control groups, after each bacteria were identically introduced through the digestion method, mortality of Bastardhalibut and Sebastes schlegeli according to bacteria infection was identified while breeding with non-treated condition of δ-aminolevulinic acid. As a result of this experiment, δ-aminolevulinic acid-treated groups have shown high viability in both Bastardhalibut (Table 12˜Table 15) and Sebastes schlegeli (Table 16˜Table 19).

Edwardsiella tarda [2] = test: as above; assay type: in vivo, Sebastes schlegeli; details: 50 fish
Experimental: as §1

Staphylococcus sp. [3] = test: as above; assay type: in vivo, Sebastes schlegeli; details: 50 fish
Experimental: as §1

Staphylococcus epidermis = test: as above; assay type: in vivo, Sebastes schlegeli; details: 50 fish
Experimental: as §1

Streptococcus sp. [4] = test: as above; assay type: in vivo, Sebastes schlegeli; details: 50 fish
Experimental: as §1

Vibrio anguillarum [5] = test: as above; assay type: in vivo, Sebastes schlegeli; details: 50 fish
Experimental: as §1

Staphylococcus sp. [6] = test: MIC assay by flat drug disc method; assay type: cell-based; details: Staphylococcus sp. (second of two lines); prepared by the inventors
Experimental: (§2) Pathogenic index bacteria used in this experiment are Edwardsiella tard, Streptococcus sp., Staphylococcus sp., Staphylococcus epidermidis, Pseudomonas sp., Vibrio anguillarum which are collected from the marine fish farm nearby Yeosu. In solid culture, they were cultured in TSA (tryptic soy agar) supplemented with 0.2% NaCl flat media and in liquid culture, they were prepared by culturing in BHI broth for 24 hrs and setting the O.D. value as 1.0. δ-aminolevulinic acid used in this experiment were one on the market (Sigma) and one formulated by inventors of the present invention (Korean patent application No. 1998-41898). Each 0.167 g δ-aminolevulinic acid were dissolved in 1.0 mL sterilized distilled water was used as undiluted solution. 1.0 M δ-aminolevulinic acid was 2-fold diluted with BHI broth by stages up to 64-fold and prepared for test solution to examine pathogenic bacteria proliferation-prohibiting effect. […] In control group, instead of δ-aminolevulinic acid, BHI broth bacteria suspension were mixed with (1:1) and then observed with the same method above. MIC assay by δ-aminolevulinic acid for major pathogenic bacteria of marine cultivating fishes, Edwardsiella tard, Streptococcus sp., Staphylococcus sp., Staphylococcus epidermidis, Pseudomonas sp., Vibrio anguillarum was carried out by flat drug disc method. 100 μL of each bacteria in a culture solution was mixed with fixed amount of top agar and coated to TSA agar. 1.0 M δ-aminolevulinic acid solution was diluted by 2 folds in PBS and 10 μL of each dilution were absorbed to sterilized disc. After incubation at 23˜25° C. for 2˜3 days, antibacterial effect was indicated by measuring the size (mm) of clear zone. In control group, PBS was absorbed into disc instead of δ-aminolevulinic acid dilution solution with the same amount and observed. From the result of this experiment using δ-aminolevulinic acid on the market, proliferation-inhibiting effects of pathogenic bacteria according to δ-aminolevulinic acid concentration are shown in Table 2a (Edwardsiella tard) and Table 2b (Streptococcus sp.). Below 1/32 fold (31 mM) of δ-aminolevulinic acid dilution rate, proliferation of both bacteria was inhibited. […] The experimental result of δ-aminolevulinic acid prepared by the inventors has shown in Table 3 and no difference in effects from δ-aminolevulinic acid on the market.

[7] = tested on: Staphylococcus epidermidis; test: MIC assay by flat drug disc method; assay type: cell-based; details: prepared by the inventors
Experimental: as §2

Vibrio anguillarum [8] = test: MIC assay by flat drug disc method; assay type: cell-based; details: prepared by the inventors
Experimental: as §2

Edwardsiella tarda [9] = test: Proliferation inhibition of pathogenic bacteria in BHI broth (620 nm); assay type: cell-based; details: product on the market (Sigma)
Experimental: as §2

Streptococcus sp. [10] = test: as above; assay type: cell-based; details: product on the market (Sigma)
Experimental: as §2

[11] = digestion 0.1 ppm from 4th day of infection, Sebastes schlegeli fry
[12] = digestion 1.0 ppm from 4th day of infection, Sebastes schlegeli fry
[13] = digestion 5.0 ppm from 4th day of infection, in Sebastes schlegeli
[14] = digestion 10 ppm from 4th day of infection
[15] = digestion 10 ppm from 4th day of infection, Sebastes schlegeli fry
[16] = digestion 5.0 ppm from 4th day of infection
[17] = above 1/64 fold (16 mM) dilution rate
[18] = below 1/32 fold (31 mM) dilution rate, 24 hrs, 25° C.

With `NCC(=O)CCC(=O)O` [δ-aminolevulinic acid] the “safe range of toxicity” value [1] was “below 10 mM”, the Viability (Pseudomonas sp.; [11]) was 40% and the Viability (Pseudomonas sp.; [12]) was 76%. The Viability (Pseudomonas sp.; [13]) was 86%, the Viability (Pseudomonas sp.; [14]) was 84% and the Viability (Edwardsiella tarda [2]; [11]) was 60%. For the same compound, the Viability (Edwardsiella tarda [2]; [12]) was 80%, the Viability (Edwardsiella tarda [2]; [13]) was 84% and the Viability (Edwardsiella tarda [2]; [15]) was 94%. The Viability (Staphylococcus sp. [3]; [11]) was 50%, the Viability (Staphylococcus sp. [3]; [12]) was 76% and the Viability (Staphylococcus sp. [3]; [16]) was 84%. For the same compound, the Viability (Staphylococcus sp. [3]; [15]) was 86%, the Viability (Staphylococcus epidermis; [11]) was 40% and the Viability (Staphylococcus epidermis; [12]) was 70%. It also gave a Viability (Staphylococcus epidermis; [13]) of 66%, a Viability (Staphylococcus epidermis; [14]) of 84% and a Viability (Streptococcus sp. [4]; [11]) of 50%. It also gave a Viability (Streptococcus sp. [4]; [12]) of 76%, a Viability (Streptococcus sp. [4]; [13]) of 86% and a Viability (Streptococcus sp. [4]; [15]) of 86%. It also gave a Viability (Vibrio anguillarum [5]; [11]) of 50%, a Viability (Vibrio anguillarum [5]; [12]) of 74% and a Viability (Vibrio anguillarum [5]; [16]) of 84%. The Viability (Vibrio anguillarum [5]; [15]) was 86%, the MIC (Staphylococcus sp. [6]) was 59.6 µg/mL (≈ 455 µM) and the MIC [7] was 62 µg/mL (≈ 473 µM). The MIC (Vibrio anguillarum [8]) was 29.9 µg/mL (≈ 228 µM), the proliferation of bacteria (Edwardsiella tarda [9]; [17]) was “no significant difference from the control group” and the proliferation of bacteria (Edwardsiella tarda [9]; [18]) was “inhibited”. For the same compound, the proliferation of bacteria (Streptococcus sp. [10]; [17]) was “no significant difference from the control group” and the proliferation of bacteria (Streptococcus sp. [10]; [18]) was “inhibited”.
